Positions of bridges follow the written chain, without caps; N, C: chain ends. Non-standard residues stand in square brackets, D forms with d. Residues, ends and D or L forms follow the SMILES beside them. Trp(7-Me) = Cc1cccc2c(C[C@H](N)C(=O)O)c[nH]c12; 2Nal = N[C@@H](Cc1ccc2ccccc2c1)C(=O)O; Thp(SO2) = NC1(C(=O)O)CCS(=O)(=O)CC1; AEF = NCCOc1ccc(C[C@H](N)C(=O)O)cc1; Ac6c(4-thia) = NC1(C(=O)O)CCSCC1; 3Pal = N[C@@H](Cc1cccnc1)C(=O)O; Pen = CC(C)(S)[C@H](N)C(=O)O; Thp = NC1(C(=O)O)CCOCC1; Sar = CNCC(=O)O
Experiments:
[1] = Pharmacokinetic determination in beagle dogs (IV); conditions: male, dog, plasma, 0.2 mg/kg
Method: Beagle dogs were used as test animals to study the pharmacokinetic behavior of the compounds of the examples in the rats (plasma) after IV administration.
3 beagle dogs/group, male, from Yizheng Anlimao Biotechnology Co., Ltd.
The compounds of the examples were weighed and dissolved in this solution, vortexed, ultrasonicated for 5 min, and filtered through a 0.22 μm filter membrane to obtain colorless clear solutions with a concentration of 0.1 mg/mL.
3 beagle dogs/group, male were fasted overnight and then respectively administered IV at a dose of 0.2 mg/kg and a volume of 2 mL/kg.
1) Acetonitrile (200 μL) was added to the plasma sample (50 L) for precipitation, and the mixture was mixed and centrifuged at 4500 rpm for 15 min.
(§3) 2) The treated supernatant solution was taken and subjected to LC/MS/MS to analyze the concentrations of the test compounds. LC/MS/MS analysis instrument: AB Sciex Triple Quad 6500+.
Premier Peptide CSH C18 130A 1.7 μm 2.1*100 mm Column, mobile phase: liquid A: 5% acetonitrile aqueous solution (0.1% formic acid), and liquid B: an aqueous solution of 95% acetonitrile (0.1% formic acid) • Flow rate: 0.6 mL/min • Elution time: 0-2.0 min, the eluent was as follows:
(§4) The main pharmacokinetic parameters were calculated using WinNonlin 8.1.

[2] = Pharmacokinetic determination in rats (IV); conditions: male, SD, rat, plasma, 1 mg/kg
Method: SD rats were used as test animals to study the pharmacokinetic behavior of the compounds of the examples in the rats (plasma) after oral or IV administration.
Preparation of intravenous drug: PBS
The compounds of the examples were weighed and dissolved in this solution, vortexed, ultrasonicated for 5 min, and filtered through a 0.22 μm filter membrane to obtain colorless clear solutions with a concentration of 0.2 mg/mL.
3 SD rats/group, male were fasted overnight and then respectively administered IV at a dose of 1 mg/kg and a volume of 5 mL/kg.
• Before administration and at 0.083 h, 0.25 h, 0.5 h, 1.0 h, 2.0 h, 4.0 h, 6.0 h, 8.0 h, and 24.0 h after administration (IV), 0.2 mL of blood was collected from the jugular vein, placed in an EDTA-2K test tube, and centrifuged at 6000 rpm for 6 min at 4° C. to separate plasma, which was stored at −20° C.; and the rats were fed 4 h after administration.
1) Acetonitrile (200 μL) was added to the plasma sample (50 μL) for precipitation, and the mixture was mixed and centrifuged at 4500 rpm for 15 min.
as §3
• Liquid phase conditions: Shimadzu LC-30AD pump • Chromatographic column: HALO 90A PFP 2.7 μm 2.1×30 mm, mobile phase: liquid A: 5% acetonitrile aqueous solution (0.1% formic acid), and liquid B: an aqueous solution of 95% acetonitrile (0.1% formic acid) • Flow rate: 0.6 mL/min • Elution time: 0-2.0 min, the eluent was as follows:
as §4

[3] = system: IL23-induced rat otitis model; test: In vivo pharmacodynamics in IL23-induced rat otitis model (ear thickening); parameters: species or system SD rats; conditions: 10 mg/kg, gavage, BID
Text: To evaluate the in vivo efficacy of the compounds in an IL23-induced rat otitis model.
SD rats, 6-8 weeks old, male, purchased from Jiangsu GemPharmatech Co., Ltd.
• a. […]

[4] = target: T1, IL23R (Homo sapiens, UniProt Q5VWK5); test: Competing with IL23 for binding to IL23R (HTRF, IL23/IL23R binding assay kit); conditions: 2 hours incubation at room temperature
T1 construct: Tag2 (identity not disclosed); purchased PerkinElmer 64BDPIL23PEH
T1 sequence (Q5VWK5 24-355 limits assumed): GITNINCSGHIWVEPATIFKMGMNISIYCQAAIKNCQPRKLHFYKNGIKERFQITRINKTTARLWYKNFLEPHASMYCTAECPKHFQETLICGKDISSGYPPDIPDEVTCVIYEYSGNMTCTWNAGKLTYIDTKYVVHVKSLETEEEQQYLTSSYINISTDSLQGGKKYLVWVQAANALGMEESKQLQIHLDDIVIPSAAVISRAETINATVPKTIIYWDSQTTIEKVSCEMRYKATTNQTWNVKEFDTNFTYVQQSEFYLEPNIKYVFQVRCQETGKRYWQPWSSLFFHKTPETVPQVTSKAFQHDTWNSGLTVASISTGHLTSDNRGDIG
Method: (§1) The compounds of the present disclosure were screened in IL23/IL23R BINDING ASSAY KITS (PerkinElmer Cat #64BDPIL23PEH). The screening of the compounds of the present disclosure was carried out by using a multi-well plate (suitable for HTRF determination). Generally, 2 μl of several compounds of the present disclosure and STANDARD SOLUTIONS in KIT were first respectively added to the wells of the multi-well plate. 4 μl of Tag1-IL23, 4 μl of Tag2-IL23R, and 10 μL of pre-mixed Anti-Tag1 Eu Cryptate Antibody and Anti-Tag2 d2 reagent were necessarily added to all the wells. The multi-well plate was protected from light by an opaque cover membrane, and the opaque cover membrane was then removed
as §1, with “removed after 2 hours of incubation at room temperature. The signal value was read by an HTRF-compatible detection instrument to detect IC50 value.” for “removed”
(§2) The inhibition rate was calculated as follows: […]
By using log (inhibitor) vs. response—Variable slope (four parameters) in Graphpad, the data of HTRF experiment results were subjected to non-linear regression fitting to fit a curve and obtain the IC50 value.

[5] = system: activation of STAT3 phosphorylation by hIL23 in DB cells; test: Blocking the activation of STAT3 phosphorylation by hIL23 in DB cells (p-STAT3 ELISA); assay type: cell-based, Human; conditions: DB cells stimulated by rhIL-23 0.5 nM, half an hour; read-out: pStat3 IC50
Method: To determine the inhibitory activity of the compounds of the present disclosure on the activation of STAT3 phosphorylation by hIL23 in DB cells
The compounds produced above were added to DB (ATCC Cat #CRL-2289) cells to inhibit the signal transduction of rhIL-23 cytokine. The screening of compounds was carried out by a multi-well plate (suitable for ELISA assay). Generally, in the presence of some of the above compounds of the present disclosure, 6.25×10^6 cells/ml of DB cells were stimulated by rhIL-23 (0.5 nM, R&D SYSTEMS) in RPMI medium (Invitrogen) containing 10% of FBS, and after half an hour, lysis was carried out on ice using 50 μL of 2×lysis buffer (CST). The content of p-STAT3 in the lysate was determined by PathScan Phospho-Stat3 (Tyr705) Sandwich ELISA Kit (CST Cat #7300C), so as to calculate the activity of the compounds of the present disclosure in blocking rhIL23 signal transduction in DB cells.
as §2
By using log (inhibitor) vs. response—Variable slope (four parameters) in Graphpad, the data of ELISA experiment results were subjected to non-linear regression fitting to fit a curve and obtain the IC50 value.

**Q.** For `CC(=O)NCCCC[C@@H]1NC(=O)[C@H](Cc2c[nH]c3c(C)cccc23)NC(=O)[C@H]([C@@H](C)O)NC(=O)[C@H](CC(N)=O)NC(=O)[C@@H](NC(C)=O)C(C)(C)SSC(C)(C)[C@@H](C(=O)N[C@@H](Cc2ccc(OCCN)cc2)C(=O)N[C@@H](Cc2ccc3ccccc3c2)C(=O)NC2(C(=O)N[C@@H](CCC(=O)O)C(=O)N[C@@H](CC(N)=O)C(=O)N[C@@H](Cc3cccnc3)C(=O)N(C)CC(N)=O)CCOCC2)NC1=O` [PN-235, reference compound] (Ac-[Pen]NT[Trp(7-Me)]K(Ac)[Pen][AEF][2Nal][Thp]EN[3Pal][Sar]-NH2; disulfide 1-6 (inferred); N-terminus and C-terminus assumed), which AUC(0-inf) [1] is on record?
**A.** 2030 ng·h/mL

**Q.** What about the AUC(0-t) [1] of the same molecule?
**A.** 2020 ng·h/mL

**Q.** What about the C0 [1] of the same molecule?
**A.** 1250 ng/mL

**Q.** And the MRT [1]?
**A.** 3.1 h

**Q.** And the clearance [1]?
**A.** 1.68 mL/min/kg

**Q.** And the half-life [1]?
**A.** 4.1 h

**Q.** What about the AUC(0-inf) [2] of the same molecule?
**A.** 2670 ng·h/mL

**Q.** And the AUC(0-t) [2]?
**A.** 2620 ng·h/mL

**Q.** And the C0 [2]?
**A.** 4290 ng/mL

**Q.** What about the MRT [2] of the same molecule?
**A.** 0.9 h

**Q.** And the clearance [2]?
**A.** 6.2 mL/min/kg

**Q.** And the half-life [2]?
**A.** 0.7 h

**Q.** What about the “Inhibition rate on Day 4 (ear thickening)” value [3] of the same molecule?
**A.** 55.35%

**Q.** For `CC(=O)NCCCC[C@@H]1NC(=O)[C@H](Cc2c[nH]c3c(C)cccc23)NC(=O)[C@H]([C@@H](C)O)NC(=O)[C@H](CC(N)=O)NC(=O)[C@@H](NC(C)=O)C(C)(C)SSC(C)(C)[C@@H](C(=O)N[C@@H](Cc2ccc(OCCN)cc2)C(=O)N[C@@H](Cc2ccc3ccccc3c2)C(=O)NC2(C(=O)N[C@@H](CCC(=O)O)C(=O)N[C@@H](CC(N)=O)C(=O)N[C@@H](Cc3cccnc3)C(=O)N(C)CC(N)=O)CCS(=O)(=O)CC2)NC1=O` [Example 4-14] (Ac-[Pen]NT[Trp(7-Me)]K(Ac)[Pen][AEF][2Nal][Thp(SO2)]EN[3Pal][Sar]-NH2; disulfide 1-6), which IC50 [4] is on record?
**A.** 1.11 nM

**Q.** What about the IC50 [5] of the same molecule?
**A.** 0.0016 nM

**Q.** What does the source list for `CC(=O)NCCCC[C@@H]1NC(=O)[C@H](Cc2c[nH]c3c(C)cccc23)NC(=O)[C@H]([C@@H](C)O)NC(=O)[C@H](CC(N)=O)NC(=O)[C@@H](NC(C)=O)C(C)(C)SSC(C)(C)[C@@H](C(=O)N[C@@H](Cc2ccc(OCCN)cc2)C(=O)N[C@@H](Cc2ccc3ccccc3c2)C(=O)NC2(C(=O)N[C@@H](CCC(=O)O)C(=O)N[C@@H](CC(N)=O)C(=O)N[C@@H](Cc3cccnc3)C(=O)N(C)CC(N)=O)CCSCC2)NC1=O` [Example 3-14] (Ac-[Pen]NT[Trp(7-Me)]K(Ac)[Pen][AEF][2Nal][Ac6c(4-thia)]EN[3Pal][Sar]-NH2; disulfide 1-6)?
**A.** IC50 [4]: 1.09 nM; IC50 [5]: 0.0014 nM

**Q.** With `CCCCCCC(=O)NCCCCCCCC(=O)NCC[N+](C)(C)CCOCCOCCC(=O)NCCN(C)C(=O)[C@H](Cc1cccnc1)NC(=O)[C@H](CC(N)=O)NC(=O)[C@H](CCC(=O)O)NC(=O)C1(NC(=O)[C@H](Cc2ccc3ccccc3c2)NC(=O)[C@H](Cc2ccc(OCCN)cc2)NC(=O)[C@H]2NC(=O)[C@H](CCCCNC(C)=O)NC(=O)[C@H](Cc3c[nH]c4c(C)cccc34)NC(=O)[C@H]([C@@H](C)O)NC(=O)[C@H](CC(N)=O)NC(=O)[C@@H](NC(C)=O)C(C)(C)SSC2(C)C)CCOCC1` [Example 2] as the molecule, how does the IC50 [4] read?
**A.** 0.23 nM

**Q.** What about the IC50 [5] of the same molecule?
**A.** 0.01 nM

Reference: patent US20260193294A1, “POLYPEPTIDE INHIBITOR, AND PREPARATION METHOD THEREFOR AND USE THEREOF” (SHANGHAI HANSOH BIOMEDICAL CO., LTD., priority 2022, published 2026)
